Experimental data reported in US20200037588A1, “METHODS OF A DROSOPHILA MODEL FOR CHRONIC MYELOID LEUKEMIA (CML) TREATMENT” (American University of Beirut, priority 2018, published 2020).
Like-named read-outs stand apart in the source and are kept apart here.

Experiments:
[1] = test system: GMR-GAL4>w1118 control flies; settings: in vivo
[2] = test system: GMR-GAL4>w1118 control flies; experiment: Eye development of control flies fed TKI (SEM)
BCR-ABL1 = settings: cited from earlier work

| eye development in control flies fed drug (in words) [1] | eye development in control flies fed drug (in words) [2] | Structure (SMILES) | potency for BCR-AB1L inhibition in vitro compared to imatinib (BCR-ABL1) [fold] |
| --- | --- | --- | --- |
| Normal development |  | Cc1nc(Nc2ncc(C(=O)Nc3c(C)cccc3Cl)s2)cc(N2CCN(CCO)CC2)n1 [dasatinib] |  |
|  | Normal development | Cc1ccc(C(=O)Nc2ccc(CN3CCN(C)CC3)c(C(F)(F)F)c2)cc1C#Cc1cnc2cccnn12 [ponatinib] |  |
| Normal development |  | Cc1ccc(NC(=O)c2ccc(CN3CCN(C)CC3)cc2)cc1Nc1nccc(-c2cccnc2)n1 [imatinib] |  |
| Normal development |  | Cc1cn(-c2cc(NC(=O)c3ccc(C)c(Nc4nccc(-c5cccnc5)n4)c3)cc(C(F)(F)F)c2)cn1 [nilotinib] | 20 |
